Results reported in PMC12988607 (BMC Pharmacology & Toxicology, 2026).
Read-outs that look alike come from different tables or passages of the source.

What was measured:
[1] = within 3 hours; cited from earlier work
[2] = cited from earlier work
[3] = system: healthy Chinese volunteers; assay: Urine PD parameters; format: in vivo; details: for urine-GLU: 0~4 h after 10 mg EMPA, p < 0.001
[4] = format: in vivo, healthy Chinese volunteers; details: for AUC(0-t): AUC0-t; for AUC(0-t) / AUC(0-inf) / Cmax / Tmax: geometric mean; for AUC(0-inf): AUC0-∞; for half-life: t1/2, geometric mean
[5] = system: healthy Chinese volunteers; assay: RAAS-related parameters; format: in vivo; details: for Ang II: after EMPA
[6] = system: healthy Chinese volunteers; assay: Blood PD parameters; format: in vivo; details: p < 0.05; for blood-GLU / insulin: fasting group; for blood-GLU: before EMPA (5.1 ± 0.4) mmol/L; for insulin: before EMPA (7.0 ± 3.7) mU/L
[7] = Fed (high-fat diet), single 10 mg EMPA
[8] = human, plasma, oral, 10 mg, Fasting, single 10 mg EMPA
[9] = human, plasma, oral, 10 mg, Fed (high-fat diet), single 10 mg EMPA

## OC[C@H]1O[C@@H](c2ccc(Cl)c(Cc3ccc(O[C@H]4CCOC4)cc3)c2)[C@H](O)[C@@H](O)[C@@H]1O [EMPA, empagliflozin]
[1]
  increase in urinary glucose excretion: 27 times
[2]; 25 mg and 50 mg EMPA
  effect of a high-fat diet (HFD) on Cmax and AUC: reduce
[2]
  bioavailability: poor
  time to reach Cmax: 1.33 to 3.0 h
[3]; fasting group (n = 19), before EMPA (0.3 ± 0.2) mmol/L
  urine-GLU: 70.9 ± 29.9 mmol/L
[3]; fasting group, urine after EMPA, before EMPA (0.148 ± 0.054) mg/L, p < 0.05
  β2-MG: 0.080 ± 0.065 mg/L
[3]; fasting group, urine after EMPA, before EMPA (2.9 ± 1.7) mg/L, p < 0.05
  α1-MG: 1.9 ± 1.8 mg/L
[3]; fed group (EMPA post-meal), urine
  α1-MG level, after vs before EMPA: did not show a significant difference
[3]; fed group (n = 23), before EMPA (0.3 ± 0.3) mmol/L
  urine-GLU: 89.6 ± 35.4 mmol/L
[3]; fed group, after 4 h of EMPA administration, comparison value (2223.8 ± 891.1) mmol/L, p < 0.05
  urine-UA: 2751.5 ± 1018.1 mmol/L
[3]; fed group, urine after EMPA, before EMPA (0.145 ± 0.075) mg/L, p < 0.05
  β2-MG: 0.094 ± 0.059 mg/L
[4]; 0.5 h after 10 mg EMPA
  Plasma concentrations Fasting/fed: 3.00
[4]; 1 h after 10 mg EMPA
  Plasma concentrations Fasting/fed: 2.27
[4]; 1.25 h after 10 mg EMPA
  Plasma concentrations Fasting/fed: 1.92
[4]; 1.5 h after 10 mg EMPA
  Plasma concentrations Fasting/fed: 1.71
[4]; 1.75 h after 10 mg EMPA
  Plasma concentrations Fasting/fed: 1.68
[4]; 2 h after 10 mg EMPA
  Plasma concentrations Fasting/fed: 1.61
[4]; 2.25 h after 10 mg EMPA
  Plasma concentrations Fasting/fed: 1.62
[4]; 2.75 h after 10 mg EMPA
  Plasma concentrations Fasting/fed: 1.55
[4]; 3 h after 10 mg EMPA
  Plasma concentrations Fasting/fed: 1.55
[4]; 4 h after 10 mg EMPA
  Plasma concentrations Fasting/fed: 1.40
[4]; 6 h after 10 mg EMPA
  Plasma concentrations Fasting/fed: 1.36
[4]; 8 h after 10 mg EMPA
  Plasma concentrations Fasting/fed: 1.30
[4]; 10 h after 10 mg EMPA
  Plasma concentrations Fasting/fed: 1.24
[4]; 12 h after 10 mg EMPA
  Plasma concentrations Fasting/fed: 1.21
[4]; 24 h after 10 mg EMPA
  Plasma concentrations Fasting/fed: 1.09
[4]; 36 h after 10 mg EMPA
  Plasma concentrations Fasting/fed: 1.09
[4]; 48 h after 10 mg EMPA
  Plasma concentrations Fasting/fed: 1.03
[4]; Fasting, single 10 mg EMPA
  AUC_%Extrap, geometric mean: 1.80%
[4]; [7]
  AUC_%Extrap, geometric mean: 2.57%
  λz, geometric mean: 0.08 h⁻¹
[4]; human, plasma, oral, 10 mg
  k el: 2.22e-05 s⁻¹
[4]; [8]
  AUC(0-t): 1310 ng·h/mL
  AUC(0-inf): 1330 ng·h/mL
  Cmax: 187 ng/mL
  Tmax: 1.31 h
  half-life: 8.18 h
[4]; [9]
  AUC(0-t): 951 ng·h/mL
  AUC(0-inf): 978 ng·h/mL
  Cmax: 113 ng/mL
  Tmax: 1.67 h
  half-life: 8.34 h
[4]; human, plasma, oral, 10 mg, Plasma concentrations, Fasting (n = 56), 1 h after 10 mg EMPA
  concentration at 1 h: 166 ± 60.6 ng/mL
[4]; human, plasma, oral, 10 mg, Plasma concentrations, Fasting (n = 56), 2 h after 10 mg EMPA
  concentration at 2 h: 152 ± 27.3 ng/mL
[4]; human, plasma, oral, 10 mg, Plasma concentrations, Fasting (n = 56), 3 h after 10 mg EMPA
  concentration at 3 h: 123 ± 17.9 ng/mL
[4]; human, plasma, oral, 10 mg, Plasma concentrations, Fasting (n = 56), 4 h after 10 mg EMPA
  concentration at 4 h: 104 ± 16.4 ng/mL
[4]; human, plasma, oral, 10 mg, Plasma concentrations, Fasting (n = 56), 6 h after 10 mg EMPA
  concentration at 6 h: 72 ± 12.5 ng/mL
[4]; human, plasma, oral, 10 mg, Plasma concentrations, Fasting (n = 56), 8 h after 10 mg EMPA
  concentration at 8 h: 52.6 ± 9.1 ng/mL
[4]; human, plasma, oral, 10 mg, Plasma concentrations, Fasting (n = 56), 10 h after 10 mg EMPA
  concentration at 10 h: 40.4 ± 8.2 ng/mL
[4]; human, plasma, oral, 10 mg, Plasma concentrations, Fasting (n = 56), 12 h after 10 mg EMPA
  concentration at 12 h: 30.7 ± 6.5 ng/mL
[4]; human, plasma, oral, 10 mg, Plasma concentrations, Fasting (n = 56), 24 h after 10 mg EMPA
  concentration at 24 h: 10.1 ± 3 ng/mL
[4]; human, plasma, oral, 10 mg, Plasma concentrations, Fasting (n = 56), 36 h after 10 mg EMPA
  concentration at 36 h: 3.5 ± 1.4 ng/mL
[4]; human, plasma, oral, 10 mg, Plasma concentrations, Fasting (n = 56), 48 h after 10 mg EMPA
  concentration at 48 h: 2.2 ± 0.9 ng/mL
[4]; human, plasma, oral, 10 mg, Plasma concentrations, Fed (n = 58), high-fat diet, 0.5 h after 10 mg EMPA
  concentration at 0.5 h: 34.2 ± 31 ng/mL
[4]; human, plasma, oral, 10 mg, Plasma concentrations, Fed (n = 58), high-fat diet, 1 h after 10 mg EMPA
  concentration at 1 h: 72.9 ± 49.5 ng/mL
[4]; human, plasma, oral, 10 mg, Plasma concentrations, Fed (n = 58), high-fat diet, 1.25 h after 10 mg EMPA
  concentration at 1.25 h: 87.4 ± 39.2 ng/mL
[4]; human, plasma, oral, 10 mg, Plasma concentrations, Fed (n = 58), high-fat diet, 1.5 h after 10 mg EMPA
  concentration at 1.5 h: 95.7 ± 33.7 ng/mL
[4]; human, plasma, oral, 10 mg, Plasma concentrations, Fed (n = 58), high-fat diet, 1.75 h after 10 mg EMPA
  concentration at 1.75 h: 94.1 ± 28.1 ng/mL
[4]; human, plasma, oral, 10 mg, Plasma concentrations, Fed (n = 58), high-fat diet, 2 h after 10 mg EMPA
  concentration at 2 h: 94.2 ± 26.3 ng/mL
[4]; human, plasma, oral, 10 mg, Plasma concentrations, Fed (n = 58), high-fat diet, 2.25 h after 10 mg EMPA
  concentration at 2.25 h: 91.5 ± 22.6 ng/mL
[4]; human, plasma, oral, 10 mg, Plasma concentrations, Fed (n = 58), high-fat diet, 2.75 h after 10 mg EMPA
  concentration at 2.75 h: 83.9 ± 16 ng/mL
[4]; human, plasma, oral, 10 mg, Plasma concentrations, Fed (n = 58), high-fat diet, 3 h after 10 mg EMPA
  concentration at 3 h: 79.4 ± 15 ng/mL
[4]; human, plasma, oral, 10 mg, Plasma concentrations, Fed (n = 58), high-fat diet, 4 h after 10 mg EMPA
  concentration at 4 h: 74.4 ± 11.1 ng/mL
[4]; human, plasma, oral, 10 mg, Plasma concentrations, Fed (n = 58), high-fat diet, 6 h after 10 mg EMPA
  concentration at 6 h: 53.1 ± 8.8 ng/mL
[4]; human, plasma, oral, 10 mg, Plasma concentrations, Fed (n = 58), high-fat diet, 8 h after 10 mg EMPA
  concentration at 8 h: 40.5 ± 7.6 ng/mL
[4]; human, plasma, oral, 10 mg, Plasma concentrations, Fed (n = 58), high-fat diet, 10 h after 10 mg EMPA
  concentration at 10 h: 32.7 ± 6.7 ng/mL
[4]; human, plasma, oral, 10 mg, Plasma concentrations, Fed (n = 58), high-fat diet, 12 h after 10 mg EMPA
  concentration at 12 h: 25.4 ± 4.9 ng/mL
[4]; human, plasma, oral, 10 mg, Plasma concentrations, Fed (n = 58), high-fat diet, 24 h after 10 mg EMPA
  concentration at 24 h: 9.3 ± 1.8 ng/mL
[4]; human, plasma, oral, 10 mg, Plasma concentrations, Fed (n = 58), high-fat diet, 36 h after 10 mg EMPA
  concentration at 36 h: 3.2 ± 1.2 ng/mL
[4]; human, plasma, oral, 10 mg, Plasma concentrations, Fed (n = 58), high-fat diet, 48 h after 10 mg EMPA
  concentration at 48 h: 2.2 ± 0.8 ng/mL
[5]; fasting group
  ALD levels, after vs before EMPA: no significant differences
[5]; fasting group, 2 h after EMPA, before EMPA (37.3 ± 25.8) pg/mL, p < 0.05
  PRC: 52.2 ± 28.2 pg/mL
[5]; fasting group, 4 h after EMPA, before EMPA (37.3 ± 25.8) pg/mL, p < 0.05
  PRC: 51.5 ± 23.7 pg/mL
[5]; fasting group, before EMPA (81.9 ± 9.9) pg/mL, p < 0.05
  Ang II: 88.2 ± 10.3 pg/mL
[5]; fed group
  ALD levels, after vs before EMPA: no significant differences
[5]; fed group, 4 h after EMPA, before EMPA (32.5 ± 22.4) pg/mL, p = ns
  PRC: 30.4 ± 18.9 pg/mL
[5]; fed group, before EMPA (91.6 ± 26.7) pg/mL, p < 0.05
  Ang II: 82.6 ± 23.3 pg/mL
[6]; 2 h after EMPA
  blood-GLU: 4.8 ± 0.3 mmol/L
  insulin: 5.0 ± 2.2 mU/L
[6]; 4 h after EMPA
  blood-GLU: 4.7 ± 0.3 mmol/L
  insulin: 4.7 ± 3.2 mU/L
[6]; fed group, 4 h after EMPA, before EMPA (4.4 ± 1.0) mmol/L
  BUN: 5.5 ± 1.0 mmol/L
[6]; fed group, 4 h after EMPA, before EMPA (66.0 ± 8.4) mmol/L as printed
  SCr: 71.5 ± 9.7 µmol/L
[6]; fed group, 4 h after EMPA, before EMPA (141.6 ± 22.0)
  eGFR: 128.3 ± 20.7 ml/min/1.73 m^2
[6]; fed group, 4 h after EMPA, comparison value (369.2 ± 62.9) μmol/L
  blood-UA: 342.6 ± 57.6 µmol/L
